From publication PMC6917776, “Discovery of a chemical probe for PRDM9” (Nature Communications, 2019)

Assays:
Assay in all cases: CelltiterGlo viability cell assay
Type in all cases: cell-based
MDA-MB-436 = test system: MDA-MB-436
Method: (§1) Supplementary Figure 13. […] Viability of
(§2) (a) Multiple Myeloma lines and (b) Breast Cancer cell lines following 3 or 6 days treatment with […]
(§3) manufacturer’s instructions as described in the Supplementary methods. Data are normalized to DMSO control. N=3 biological replicates, +/- SEM. Source data are provided as a Source Data […]
(§4) CelltiterGlo viability cell assay
(§5) Cells were seeded in 96 well plates at per-well densities of 10000 (MDA-MB436, ATCC-HTB130), 15000 (8226, kind gift from Rodger Tiedemann, Princess Margaret Cancer Centre), […]
(§6) kind gift from Rodger Tiedemann, Princess Margaret Cancer Centre) and 50000 (CAL851, kind gift from Mathieu Lupien, Princess Margaret Cancer Centre) and were treated at increasing concentrations of compounds ranging from 0.01 μM to 30 μM and assessed for proliferation using CelltiterGlo (Promega) following manufacturer’s instructions, as readout on days 3 and 6 as indicated. All cell lines were mycoplasma negative, as determined by MycoAlert™ Mycoplasma Detection Kit(Lonza). […]

HCC1143 = test system: HCC1143
Method: as §1, §2, §3, §4, §5, §6

HCC1806 = test system: HCC1806
Method: as §1, §2, §3, §4, §5, §6

SKMM2 = details: SKMM2, 3 day, 0.01 uM
Method: as §1, §2, §3, §4, §5, §6

## COc1cc(OC)cc(-c2noc(N3CCN(C)C4(CCN(c5ccccc5)CC4)C3)n2)c1 [MRK-740N]
MDA-MB-436; MDA MB436, 3 day, 0.01 uM
  viability Average: 104.47
  viability Replicate 1: 104.85
  viability Replicate 2: 108.92
  viability Replicate 3: 99.63
MDA-MB-436; MDA MB436, 3 day, 0.03 uM
  viability Average: 103.60
  viability Replicate 1: 101.98
  viability Replicate 2: 106.92
  viability Replicate 3: 101.91
MDA-MB-436; MDA MB436, 3 day, 0.1 uM
  viability Average: 104.90
  viability Replicate 1: 108.03
  viability Replicate 2: 99.50
  viability Replicate 3: 107.16
MDA-MB-436; MDA MB436, 3 day, 0.3 uM
  viability Average: 109.23
  viability Replicate 1: 113.13
  viability Replicate 2: 103.55
  viability Replicate 3: 111.02
MDA-MB-436; MDA MB436, 3 day, 1 uM
  viability Average: 109.50
  viability Replicate 1: 114.19
  viability Replicate 2: 107.46
  viability Replicate 3: 106.85
MDA-MB-436; MDA MB436, 3 day, 3 uM
  viability Average: 108.81
  viability Replicate 1: 105.69
  viability Replicate 2: 108.01
  viability Replicate 3: 112.73
MDA-MB-436; MDA MB436, 3 day, 9.5 uM
  viability Average: 105.69
  viability Replicate 1: 111.14
  viability Replicate 2: 101.16
  viability Replicate 3: 104.77
MDA-MB-436; MDA MB436, 3 day, 30 uM
  viability Average: 65.33
  viability Replicate 1: 67.81
  viability Replicate 2: 62.64
  viability Replicate 3: 65.53
MDA-MB-436; MDA MB436, 6 day, 0.01 uM
  viability Average: 103.60
  viability Replicate 1: 113.45
  viability Replicate 2: 100.02
  viability Replicate 3: 97.33
MDA-MB-436; MDA MB436, 6 day, 0.03 uM
  viability Average: 104.88
  viability Replicate 1: 112.01
  viability Replicate 2: 99.73
  viability Replicate 3: 102.91
MDA-MB-436; MDA MB436, 6 day, 0.1 uM
  viability Average: 102.74
  viability Replicate 1: 107.88
  viability Replicate 2: 92.08
  viability Replicate 3: 108.25
MDA-MB-436; MDA MB436, 6 day, 0.3 uM
  viability Average: 105.71
  viability Replicate 1: 111.04
  viability Replicate 2: 94.90
  viability Replicate 3: 111.19
MDA-MB-436; MDA MB436, 6 day, 1 uM
  viability Average: 105.76
  viability Replicate 1: 115.22
  viability Replicate 2: 95.99
  viability Replicate 3: 106.08
MDA-MB-436; MDA MB436, 6 day, 3 uM
  viability Average: 103.68
  viability Replicate 1: 104.50
  viability Replicate 2: 94.30
  viability Replicate 3: 112.23
MDA-MB-436; MDA MB436, 6 day, 9.5 uM
  viability Average: 88.40
  viability Replicate 1: 98.62
  viability Replicate 2: 74.13
  viability Replicate 3: 92.44
MDA-MB-436; MDA MB436, 6 day, 30 uM
  viability Average: 37.17
  viability Replicate 1: 41.30
  viability Replicate 2: 30.92
  viability Replicate 3: 39.29
HCC1143; HCC1143, 3 day, 0.01 uM
  viability Average: 99.63
  viability Replicate 1: 94.06
  viability Replicate 2: 105.87
  viability Replicate 3: 98.96
HCC1143; HCC1143, 3 day, 0.03 uM
  viability Average: 100.04
  viability Replicate 1: 98.98
  viability Replicate 2: 103.01
  viability Replicate 3: 98.14
HCC1143; HCC1143, 3 day, 0.1 uM
  viability Average: 100.66
  viability Replicate 1: 94.28
  viability Replicate 2: 108.89
  viability Replicate 3: 98.81
HCC1143; HCC1143, 3 day, 0.3 uM
  viability Average: 101.81
  viability Replicate 1: 94.36
  viability Replicate 2: 110.71
  viability Replicate 3: 100.36
HCC1143; HCC1143, 3 day, 1 uM
  viability Average: 102.28
  viability Replicate 1: 95.62
  viability Replicate 2: 111.25
  viability Replicate 3: 99.98
HCC1143; HCC1143, 3 day, 3 uM
  viability Average: 102.58
  viability Replicate 1: 95.70
  viability Replicate 2: 110.25
  viability Replicate 3: 101.79
HCC1143; HCC1143, 3 day, 9.5 uM
  viability Average: 96.93
  viability Replicate 1: 91.87
  viability Replicate 2: 108.74
  viability Replicate 3: 90.19
HCC1143; HCC1143, 3 day, 30 uM
  viability Average: 42.44
  viability Replicate 1: 41.34
  viability Replicate 2: 45.73
  viability Replicate 3: 40.25
HCC1143; HCC1143, 6 day, 0.03 uM
  viability Average: 106.15
  viability Replicate 1: 104.58
  viability Replicate 2: 106.98
  viability Replicate 3: 106.88
HCC1143; HCC1143, 6 day, 0.1 uM
  viability Average: 106.29
  viability Replicate 1: 110.44
  viability Replicate 2: 106.94
  viability Replicate 3: 101.48
HCC1143; HCC1143, 6 day, 0.3 uM
  viability Average: 109.27
  viability Replicate 1: 115.47
  viability Replicate 2: 108.44
  viability Replicate 3: 103.89
HCC1143; HCC1143, 6 day, 1 uM
  viability Average: 112.12
  viability Replicate 1: 119.58
  viability Replicate 2: 108.44
  viability Replicate 3: 108.34
HCC1143; HCC1143, 6 day, 3 uM
  viability Average: 118.66
  viability Replicate 1: 128.58
  viability Replicate 2: 111.85
  viability Replicate 3: 115.55
HCC1143; HCC1143, 6 day, 9.5 uM
  viability Average: 112.33
  viability Replicate 1: 117.62
  viability Replicate 2: 107.90
  viability Replicate 3: 111.46
HCC1143; HCC1143, 6 day, 30 uM
  viability Average: 53.32
  viability Replicate 1: 56.13
  viability Replicate 2: 63.79
  viability Replicate 3: 40.04
HCC1806; HCC1806, 3 day, 0.01 uM
  viability Average: 114.56
  viability Replicate 1: 108.66
  viability Replicate 2: 106.14
  viability Replicate 3: 128.88
HCC1806; HCC1806, 3 day, 0.03 uM
  viability Average: 112.72
  viability Replicate 1: 107.72
  viability Replicate 2: 100.89
  viability Replicate 3: 129.55
HCC1806; HCC1806, 3 day, 0.1 uM
  viability Average: 114.82
  viability Replicate 1: 110.69
  viability Replicate 2: 103.88
  viability Replicate 3: 129.88
HCC1806; HCC1806, 3 day, 0.3 uM
  viability Average: 114.56
  viability Replicate 1: 110.72
  viability Replicate 2: 101.60
  viability Replicate 3: 131.35
HCC1806; HCC1806, 3 day, 1 uM
  viability Average: 117.58
  viability Replicate 1: 111.18
  viability Replicate 2: 107.64
  viability Replicate 3: 133.91
HCC1806; HCC1806, 3 day, 3 uM
  viability Average: 114.75
  viability Replicate 1: 110.32
  viability Replicate 2: 101.81
  viability Replicate 3: 132.12
HCC1806; HCC1806, 3 day, 9.5 uM
  viability Average: 100.22
  viability Replicate 1: 94.76
  viability Replicate 2: 91.96
  viability Replicate 3: 113.95
HCC1806; HCC1806, 3 day, 30 uM
  viability Average: 31.36
  viability Replicate 1: 29.97
  viability Replicate 2: 27.69
  viability Replicate 3: 36.41
HCC1806; HCC1806, 6 day, 0.03 uM
  viability Average: 104.14
  viability Replicate 1: 102.41
  viability Replicate 2: 102.60
  viability Replicate 3: 107.42
HCC1806; HCC1806, 6 day, 0.1 uM
  viability Average: 107.97
  viability Replicate 1: 107.96
  viability Replicate 2: 108.22
  viability Replicate 3: 107.74
HCC1806; HCC1806, 6 day, 0.3 uM
  viability Average: 112.99
  viability Replicate 1: 109.14
  viability Replicate 2: 116.56
  viability Replicate 3: 113.26
HCC1806; HCC1806, 6 day, 1 uM
  viability Average: 115.10
  viability Replicate 1: 111.79
  viability Replicate 2: 117.79
  viability Replicate 3: 115.71
HCC1806; HCC1806, 6 day, 3 uM
  viability Average: 114.65
  viability Replicate 1: 112.70
  viability Replicate 2: 114.15
  viability Replicate 3: 117.09
HCC1806; HCC1806, 6 day, 9.5 uM
  viability Average: 110.91
  viability Replicate 1: 107.82
  viability Replicate 2: 111.79
  viability Replicate 3: 113.11
HCC1806; HCC1806, 6 day, 30 uM
  viability Average: 35.99
  viability Replicate 1: 27.63
  viability Replicate 2: 38.19
  viability Replicate 3: 42.14
SKMM2
  viability Average: 99.67
  viability Replicate 1: 98.81
  viability Replicate 2: 100.27
  viability Replicate 3: 99.94
